# Laboratory results published in patent US20130096166A1 (Clark Atlanta University, priority 2011, published 2013).
# Key:
# [1] = tested on: cleaved PARP; test: Western blot analysis of cleaved PARP protein expression; assay type: cell-based, human; settings: for effect on camalexin-mediated PARP cleavage: H2O2 with camalexin
# [2] = tested on: caspase-3/7 activity in ARCaP Snail cells; test: FACS analysis of caspase-3/7 activity (Dual Sensor Mitocasp assay); assay type: cell-based, human; settings: 3 days
# Protocol: Caspases are generally accepted as the executioners of apoptosis. […] Stained cells were evaluated in an Accuri® C6 Flow Cytometer (Accuri Cytometers Inc., Ann Arbor, Mich.) and analyzed using FlowJo software.
# [3] = tested on: ARCaP Snail cells; test: Detection of reactive oxygen species (H2DCFDA oxidation); assay type: cell-based, human
# Protocol: (§1) Cells were plated at a density of 1×10^4 cells well in 96-well black clear bottom plates and left to attach overnight. Baseline ROS levels were assessed in untreated ARCaP Neo, […], and C4-2 cells. Prior to treatment, […] C4-2 cells were starved in serum-free and phenol red free RPMI. […] Procedures were performed following manufacturer's protocol (Molecular Probes®, Invitrogen) with slight modifications. Briefly, cells were loaded with 10 μM (final working concentration) of H2DCFDA in pre-warmed Hanks Balance Salt solution (HBSS) for 45 minutes. This was replaced with experimental media with various treatments as well as untreated controls, for 3 days. H2DCFDA oxidation was measured on a spectrofluorometer (BIOTek Synergy HT, BIOTeK Instruments Inc., Vt.) with excitation […] and emission 528 nm at desired increments.
# [4] = tested on: C4-2 cells; test: as above; assay type: cell-based, human
# Protocol: as §1
# [5] = tested on: ARCaP Snail cells; test: Cell viability assay (CellTiter 96 AQueous One, MTS); assay type: cell-based, human
# Protocol: (§2) PrEC, ARCaP Neo, ARCaP Snail, LNCaP, and C4-2 cells were plated at a density of 2,000 cells per well in 96-well plates and allowed to attach overnight.
# [6] = tested on: caspase-3; test: Western blot analysis of total caspase-3 protein expression; assay type: cell-based, human
# [7] = tested on: Trypanosoma cruzi; settings: cited from earlier work
# [8] = tested on: Jurkat T-leukemia cells; settings: by increasing ROS and activation of caspases; cited from earlier work
# [9] = tested on: Snail; test: Western blot analysis of Snail protein expression; assay type: cell-based, human; settings: 3 days
# [10] = tested on: ARCaP Neo cells; test: Cell viability assay (CellTiter 96 AQueous One, MTS); assay type: cell-based, human
# Protocol: as §2
# [11] = tested on: LNCaP cells; test: as above; assay type: cell-based, human
# Protocol: as §2
# [12] = tested on: C4-2 cells; test: as above; assay type: cell-based, human
# Protocol: as §2
# [13] = as above; assay type: cell-based, human; settings: human, ARCaP Neo cells, 3 days, 50 μM H2O2, read-out: decrease in cell viability
# Protocol: as §2
# [14] = 10 mM NAC added to 25 or 50 μM camalexin
# [15] = ARCaP Neo cells, 10, 25 and 50 μM
compound,measurement,setting,value
"CC(=O)N[C@@H](CS)C(=O)O [NAC, N-acetyl cysteine, reference compound]",effect on camalexin-increased cleaved PARP protein expression,"[1]; ARCaP Snail cells, co-treatment with NAC",could be inhibited by co-treatment with NAC
same,effect on camalexin-induced increase in caspase-3/7 activity,[2]; 25 μM camalexin plus 10 mM NAC,abrogated the percent increase in caspase-3/7 activity
same,effect on camalexin-mediated ROS,[3]; [14],abrogated by NAC
same,effect on camalexin-mediated ROS,[4]; [14],significantly decreased camalexin-mediated ROS
same,increased viability vs. 25 μM camalexin-only treatment,"[5]; 3 days, 25 μM camalexin with 10 mM NAC, not statistically significant",approximately 15%
"c1ccc2c(-c3nccs3)c[nH]c2c1 [camalexin, 3-thiazol-2′yl-indole]",cleaved PARP protein expression,[1]; [15],very low levels of cleaved PARP protein expression
same,cleaved PARP protein expression,"[1]; ARCaP Snail cells, 10, 25 and 50 μM vs untreated control",marked increase in levels of cleaved PARP protein expression
same,PARP protein cleavage,"[1]; C4-2 cells, all 3 camalexin treatments, vs LNCaP cells",marked increase in PARP protein cleavage
same,total caspase-3 protein levels,"[6]; ARCaP Neo cells, 3 days",not in the less aggressive ARCaP Neo or LNCaP cells
same,total caspase-3 protein levels,"[6]; ARCaP Snail cells, 3 days (p<0.01 at 50 μM)",induced an increase in total caspase-3 protein levels
same,total caspase-3 protein levels,"[6]; C4-2 cells, 3 days",induced an increase in total caspase-3 protein levels
same,total caspase-3 protein levels,"[6]; LNCaP cells, 10 μM, 3 days",significant decrease in protein expression
same,total caspase-3 protein levels,"[6]; LNCaP cells, 3 days",not in the less aggressive ARCaP Neo or LNCaP cells
same,cytostatic/cytotoxic effects,[7],cytostatic/cytotoxic effects
same,apoptosis,[8],induced apoptosis
same,fraction of cells with increased caspase-3/7 activity,"[2]; 25 μM camalexin, untreated control 21.7%",34.2%
same,"ROS, as compared to untreated controls",[3]; 25 μM camalexin,approximately 210%
same,"ROS, as compared to untreated controls",[3]; 50 μM camalexin,~350±25%
same,"ROS, of untreated controls",[4]; 25 μM camalexin,approximately 130±5%
same,"ROS, of untreated controls",[4]; 50 μM camalexin,~150±5%
same,Snail protein expression,[9]; [15],no detectable levels of Snail protein expression
same,Snail protein expression,"[9]; ARCaP Snail cells, 10, 25 and 50 μM",not affected by camalexin treatments
same,Snail protein expression,"[9]; C4-2 cells, 10, 25 and 50 μM",did not affect Snail expression
same,Snail protein expression,"[9]; LNCaP cells, 10 μM",moderate expressing band for Snail protein
same,cell viability,[10]; day 0,no change in viability
same,cell viability,"[10]; day 3, 10, 25 and 50 μM",remained unaffected
same,cell viability,[5]; day 0,no change in viability
same,decrease in cell viability,"[5]; day 3, 10 μM",approximately 25%
same,decrease in cell viability,"[5]; day 3, 25 μM",~35%
same,decrease in cell viability,"[5]; day 3, 50 μM",~35%
same,cell viability,[11]; day 0,viability was unaffected
same,decrease in cell viability,"[11]; day 3, 50 μM",approximately 40±2%
same,cell viability,"[12]; C4-2, day 0",viability was unaffected
same,decrease in cell viability,"[12]; C4-2, day 3, 10 μM",approximately 40±5%
same,decrease in cell viability,"[12]; C4-2, day 3, 25 μM",approximately 40±5%
same,decrease in cell viability,"[12]; C4-2, day 3, 50 μM",approximately 40±5%
"OO [H2O2, Hydrogen peroxide, reference compound]",effect on camalexin-mediated PARP cleavage,[1]; ARCaP Neo cells,potentiated camalexin-mediated PARP cleavage
same,effect on camalexin-mediated PARP cleavage,[1]; LNCaP cells,potentiated camalexin-mediated PARP cleavage
same,ROS in cells,[4]; 100 μM H2O2 positive control,significantly increased ROS
same,"cytotoxicity at 3 days, 50 μM",[13],~50%
